In US20240083903A1, “ARYL ETHER COMPOUNDS AS TEAD MODULATORS” (Merck Sharp& Dohme LLC, priority 2021, published 2024):

These molecules were tested on TEAD Reporter-MCF7 cell line (assay: YAP/TEAD cellular activity assay: inhibition of TEAD-Luc activity in TEAD Reporter-MCF7 cell line). Settings: Homo sapiens, MCF7, 24 h, TEAD Reporter-MCF7 cells, 24 hours incubation with compound, luciferase readout.
Format: cell-based, human
Experimental: YAP/TEAD Cellular Activity Assay
Quantitation of Compound Potency on the Inhibition of TEAD-Luc Activity in TEAD Reporter-MCF7 Cell Line.
The TEAD Reporter-MCF7 cell line containing the firefly luciferase gene under the control of TEAD responsive elements stably integrated into the human breast cancer cell line was purchased from BPS Bioscience (Cat #60618). The cells were cultured with complete culture medium ([…], 1 mM sodium pyruvate, 10% fetal bovine serum, 10 ng/mL insulin and 400 ug/mL G418 sulfate) prior to the assay. For the assay, the cells were harvested, resuspended in the complete culture medium without G418, and seeded into white solid bottom 384-well cell culture microplates in 25 uL with 10,000 cells per well. The plates were incubated at 37° C. in a CO2 incubator for 20-24 hours and the compounds were then transferred from Echo LDV plates directly into the 384-well white tissue culture plates with an Echo. The plates were incubated at 37° C. in a CO2 incubator for 24 hours and equal volume of ONE-Glo™ EX Luciferase reagent (Promega, Cat #E8150) was added. After mixing on a shaker at room temperature for 10 minutes, the luciferase activity was measured with an Envision. The percentage inhibition and EC50 values of compounds were calculated with Spotfire.
Required Materials • 1. TEAD reporter-MCF-7 Cells (BPS Bioscience, #60618) • 2. Complete Cell Culture Medium (without selection antibiotics) • EMEM 89% (ATCC, #30-2003) • FBS 10% (Hyclone, #SH30088.03) • 1% Non essential amino acids (Gibco, • 1 mM sodium pyruvate (Gibco, • Pen/Strep, 1% (Gibco, #15140-122) • 10 ng/mL insulin (Sigma, #10516) • 3. Complete Cell Culture Medium (with selection antibiotics) • EMEM 89% (ATCC, #30-2003) • F1% Non essential amino acids (Gibco, • 1 mM sodium pyruvate (Gibco, • BS 10% (Hyclone, #SH30088.03) • 10 ng/mL insulin (Sigma, #10516) • 400 ug/mL G418 sulfate (Agilent, #200049-21) • 4. Miscellaneous tissue culture equipment and reagents. • 5. White solid 384-well tissue culture plate (Greiner, Cat #781080) • 6. One Glo EX luciferase assay system (Promega, #E8150)
The following table tabulates the biological data disclosed for the current invention. The biological data was collected using the methodology described above. For each compound, TEAD-Luc EC50 values are listed in nanomolar (nM) concentration units.

Compared with `CNS(=O)(=O)c1ccc(Oc2ccc(C(F)(F)F)cc2)c(-c2cnc3ccccn23)c1` [1-20, 3-(imidazo[1,2-a]pyridin-3-yl)-N-methyl-4-[4-(trifluoromethyl)phenoxy]benzene-1-sulfonamide], `CNS(=O)(=O)c1ccc(Oc2ccc(C(F)(F)F)cc2)c(-c2cnc3cc(C)ccn23)c1` [1-25, N-methyl-3-(7-methylimidazo[1,2-a]pyridin-3-yl)-4-[4-(trifluoromethyl)phenoxy]benzene-1-sulfonamide] is 2.2-fold lower in EC50: 7140 nM for the first, 3270 nM for the second.

Compared with `CNS(=O)(=O)c1ccc(Oc2ccc(C(F)(F)F)cc2)c(-c2cnc3c(N)cccn23)c1` [1-21, 3-(8-aminoimidazo[1,2-a]pyridin-3-yl)-N-methyl-4-[4-(trifluoromethyl)phenoxy]benzene-1-sulfonamide], `CNS(=O)(=O)c1ccc(Oc2ccc(C(F)(F)F)cc2)c(-c2cnc3ccc(N)cn23)c1` [1-24, 3-(6-aminoimidazo[1,2-a]pyridin-3-yl)-N-methyl-4-[4-(trifluoromethyl)phenoxy]benzene-1-sulfonamide] is 1.7-fold lower in EC50: 9280 nM for the first, 5390 nM for the second.

First: CNS(=O)(=O)c1ccc(Oc2ccc(C(F)(F)F)cc2)c(-c2nc(C)n3c2COCC3)c1 [1-22, N-methyl-3-(3-methyl-5,6-dihydro-8H-imidazo[5,1-c][1,4]oxazin-1-yl)-4-[4-(trifluoromethyl)phenoxy]benzene-1-sulfonamide]
Second: CNS(=O)(=O)c1ccc(Oc2ccc(C(F)(F)F)cc2)c(-c2cn3cc(C)ccc3n2)c1 [1-34, N-methyl-3-(6-methylimidazo[1,2-a]pyridin-2-yl)-4-[4-(trifluoromethyl)phenoxy]benzene-1-sulfonamide]
The EC50 of the first is 21-fold higher: 1820 nM for the first, 88.5 nM for the second. The second is the more potent here.

First: CNS(=O)(=O)c1ccc(Oc2ccc(C(F)(F)F)cc2)c(-c2cnc3ccc(Cl)nn23)c1 [1-23, 3-(6-chloroimidazo[1,2-b]pyridazin-3-yl)-N-methyl-4-[4-(trifluoromethyl)phenoxy]benzene-1-sulfonamide]
Second: CNS(=O)(=O)c1ccc(Oc2ccc(C(F)(F)F)cc2)c(-c2cnc3ncccn23)c1 [1-26, 3-(imidazo[1,2-a]pyrimidin-3-yl)-N-methyl-4-[4-(trifluoromethyl)phenoxy]benzene-1-sulfonamide]
The EC50 of the first is 10-fold higher: 3340 nM for the first, 335 nM for the second.

`CNS(=O)(=O)c1ccc(Oc2ccc(C(F)(F)F)cc2)c(-c2cn3ccccc3n2)c1` [1-27, 3-(imidazo[1,2-a]pyridin-2-yl)-N-methyl-4-[4-(trifluoromethyl)phenoxy]benzene-1-sulfonamide] and `CNS(=O)(=O)c1ccc(Oc2ccc(C(F)(F)F)cc2)c(-c2cn3ccc(C)cc3n2)c1` [1-31, N-methyl-3-(7-methylimidazo[1,2-a]pyridin-2-yl)-4-[4-(trifluoromethyl)phenoxy]benzene-1-sulfonamide] are within 1.5-fold of each other in EC50: 28.4 nM for the first, 40.6 nM for the second.

Compared with `CNS(=O)(=O)c1ccc(Oc2ccc(C(F)(F)F)cc2)c(-c2nc3ccccc3s2)c1` [1-28, 3-(1,3-benzothiazol-2-yl)-N-methyl-4-[4-(trifluoromethyl)phenoxy]benzene-1-sulfonamide], `CNS(=O)(=O)c1ccc(Oc2ccc(C(F)(F)F)cc2)c(-c2nc3ccccc3o2)c1` [1-29, 3-(1,3-benzoxazol-2-yl)-N-methyl-4-[4-(trifluoromethyl)phenoxy]benzene-1-sulfonamide] is 13-fold higher in EC50: 66.6 nM for the first, 861 nM for the second.

Compared with `CNS(=O)(=O)c1ccc(Oc2ccc(C(F)(F)F)cc2)c(-c2cn3ccc(C(=O)OC)cc3n2)c1` [1-30, methyl 2-{5-(methylsulfamoyl)-2-[4-(trifluoromethyl)phenoxy]phenyl} imidazo[1,2-a]pyridine-7-carboxylate], `CNS(=O)(=O)c1ccc(Oc2ccc(C(F)(F)F)cc2)c(-c2cn3ccc(F)cc3n2)c1` [1-32, 3-(7-fluoroimidazo[1,2-a]pyridin-2-yl)-N-methyl-4-[4-(trifluoromethyl)phenoxy]benzene-1-sulfonamide] is 120-fold lower in EC50: 7800 nM for the first, 62.4 nM for the second. The second is the more potent here.

`CNS(=O)(=O)c1ccc(Oc2ccc(C(F)(F)F)cc2)c(-c2cn3cccc(C)c3n2)c1` [1-33, N-methyl-3-(8-methylimidazo[1,2-a]pyridin-2-yl)-4-[4-(trifluoromethyl)phenoxy]benzene-1-sulfonamide] showed an EC50 of 236 nM.
